Literature values, collected in US11053254B2, “Crystalline forms of mitomycin C for treatment of cancer” (TRANSGENEX NANOBIOTECH, INC., priority 2018, dated 2021).

Conditions: acidic solutions with pH<6

CO[C@@]12[C@H](COC(N)=O)C3=C(C(=O)C(C)=C(N)C3=O)N1C[C@@H]1N[C@@H]12 [Mitomycin C, [(4S,6S,7R,8S)-11-amino-7-methoxy-12-methyl-10,13-dioxo-2,5-diazatetracyclo[7.4.0.0^2,7.0^4,6]trideca-1(9),11-dien-8-yl]methyl carbamate]
degradation in acidic solutions: rapid degradation
